# According to US20240218022A1, “ANTI-VISTA MACROCYCLIC PEPTIDES AND COMPOSITIONS” (BRISTOL-MYERS SQUIBB COMPANY, priority 2022, published 2024):
# Positions of bridges follow the written chain, without caps; N, C: chain ends. Non-standard residues stand in square brackets, D forms with d. Residues, ends and D or L forms follow the SMILES beside them. ξ: configuration not given here. Ile(3ξ) = CCC(C)[C@H](N)C(=O)O; Ahp(2) = CCCCC[C@H](N)C(=O)O; NHexGly = CCCCCCNCC(=O)O; Nle = CCCC[C@H](N)C(=O)O; Orn = NCCC[C@H](N)C(=O)O; Nva = CCC[C@H](N)C(=O)O
# Target: T1, mouse VISTA (mVISTA) (Mus musculus, UniProt Q9D659)
# T1 construct: expressed in transfected cells; host or cells: Human embryonic kidney 293T cells
# T1 sequence (Q9D659 33-308): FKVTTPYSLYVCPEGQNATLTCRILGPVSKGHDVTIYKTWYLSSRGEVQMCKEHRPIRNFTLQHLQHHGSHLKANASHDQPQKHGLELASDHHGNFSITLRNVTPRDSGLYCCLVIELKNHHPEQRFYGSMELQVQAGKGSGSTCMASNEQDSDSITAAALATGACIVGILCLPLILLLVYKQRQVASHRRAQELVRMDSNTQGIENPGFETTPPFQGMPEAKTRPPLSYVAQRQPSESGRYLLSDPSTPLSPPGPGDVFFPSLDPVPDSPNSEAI
# Test: Cell-Based Binding High-Content Assay For mVISTA (HC CBA mVISTA)
# Conditions: 293T cells expressing mouse VISTA; competition with biotinylated peptide (2 nM); read-out: HC CBA mVISTA IC50
# Outline: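 This high-content binding assay uses HEK293T cells expressing murine VISTA, measuring displacement of 2 nM biotinylated peptide by fluorescent streptavidin imaging. IC50 values come from four-parameter logistic fitting.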
row,IC50 [nM],Structure (SMILES)
1,14,CCCCCCN1CC(=O)N[C@@H](Cc2ccc(O)cc2)C(=O)N[C@@H](CCCC)C(=O)N[C@@H](CC(N)=O)C(=O)N[C@@H](CCCNC(=N)N)C(=O)N[C@@H](CC(C)C)C(=O)N[C@@H](CCCCC)C(=O)N2CCC[C@H]2C(=O)N[C@@H](C(C)C)C(=O)N[C@@H](CO)C(=O)N[C@H](C(=O)NCC(=O)O)CSCC(=O)N[C@@H](Cc2ccccc2)C(=O)N[C@@H](Cc2ccc(O)cc2)C(=O)N[C@@H](CC(=O)O)C1=O [Example 1046] ({CH2CO}-FYD[NHexGly]Y[Nle]NRL[Ahp(2)]PVSCG-OH; thioether N-14)
2,32.2,CCCCCCN1CC(=O)N[C@@H](Cc2ccc(O)cc2)C(=O)N[C@@H](CCC)C(=O)N[C@@H](CC(N)=O)C(=O)N[C@@H](CCCNC(=N)N)C(=O)N[C@@H](CC(C)C)C(=O)N[C@@H](CCCCC)C(=O)N2CCC[C@H]2C(=O)N[C@@H](C(C)C)C(=O)N[C@@H](CO)C(=O)N[C@H](C(=O)NCC(=O)O)CSCC(=O)N[C@@H](Cc2ccccc2)C(=O)N[C@@H](Cc2ccc(O)cc2)C(=O)N[C@@H](CC(=O)O)C1=O [Example 1047] ({CH2CO}-FYD[NHexGly]Y[Nva]NRL[Ahp(2)]PVSCG-OH; thioether N-14)
3,22.4,CCCCCCN1CC(=O)N[C@@H](Cc2ccc(O)cc2)C(=O)N[C@@H](CCCC)C(=O)N[C@@H](CC(=O)O)C(=O)N[C@@H](CCCN)C(=O)N[C@@H](CC(C)C)C(=O)N[C@@H](CCCCC)C(=O)N2CCC[C@H]2C(=O)N[C@@H](C(C)C)C(=O)N[C@@H](CO)C(=O)N[C@H](C(=O)NCC(N)=O)CSCC(=O)N[C@@H](Cc2ccccc2)C(=O)N[C@@H](Cc2ccc(O)cc2)C(=O)N[C@@H](CC(=O)O)C1=O [Example 1048] ({CH2CO}-FYD[NHexGly]Y[Nle]D[Orn]L[Ahp(2)]PVSCG-NH2; thioether N-14)
4,9.5,CCCCCCN1CC(=O)N[C@@H](Cc2ccc(O)cc2)C(=O)N[C@@H](CC(C)C)C(=O)NCC(=O)N[C@@H](CCCNC(=N)N)C(=O)N[C@@H](CC(C)C)C(=O)N[C@@H](CCCCC)C(=O)N2CCC[C@H]2C(=O)N[C@@H](C(C)C)C(=O)N[C@@H](CO)C(=O)N[C@H](C(=O)NCC(N)=O)CSCC(=O)N[C@@H](Cc2ccccc2)C(=O)N[C@@H](Cc2ccc(O)cc2)C(=O)N[C@@H](CC(=O)O)C1=O [Example 1049] ({CH2CO}-FYD[NHexGly]YLGRL[Ahp(2)]PVSCG-NH2; thioether N-14)
5,29.9,CCCCCCN1CC(=O)N[C@@H](Cc2ccc(O)cc2)C(=O)N[C@@H](CCCC)C(=O)NCC(=O)N[C@@H](CCCNC(=N)N)C(=O)N[C@@H](CC(C)C)C(=O)N[C@@H](CCCCC)C(=O)N2CCC[C@H]2C(=O)N[C@@H](C(C)C)C(=O)N[C@@H](CO)C(=O)N[C@H](C(=O)NCC(N)=O)CSCC(=O)N[C@@H](Cc2ccccc2)C(=O)N[C@@H](Cc2ccc(O)cc2)C(=O)N[C@@H](CC(=O)O)C1=O [Example 1050] ({CH2CO}-FYD[NHexGly]Y[Nle]GRL[Ahp(2)]PVSCG-NH2; thioether N-14)
6,11.5,CCCCCCN1CC(=O)N[C@@H](Cc2ccc(O)cc2)C(=O)N[C@@H](CCCCN)C(=O)N[C@@H](CC(=O)O)C(=O)N[C@@H](CCCN)C(=O)N[C@@H](CC(C)C)C(=O)N[C@@H](CCCCC)C(=O)N2CCC[C@H]2C(=O)N[C@@H](C(C)C)C(=O)N[C@@H](CO)C(=O)N[C@H](C(=O)NCC(=O)O)CSCC(=O)N[C@@H](Cc2ccccc2)C(=O)N[C@@H](Cc2ccc(O)cc2)C(=O)N[C@@H](CC(=O)O)C1=O [Example 1051] ({CH2CO}-FYD[NHexGly]YKD[Orn]L[Ahp(2)]PVSCG-OH; thioether N-14)
7,27.1,CCCCCCN1CC(=O)N[C@@H](Cc2ccc(O)cc2)C(=O)N[C@@H](CCCCN)C(=O)N[C@@H](CC(=O)O)C(=O)N[C@@H](CCCNC(=N)N)C(=O)N[C@@H](CC(C)C)C(=O)N[C@@H](CCCCC)C(=O)N2CCC[C@H]2C(=O)N[C@@H](C(C)C)C(=O)N[C@@H](CO)C(=O)N[C@H](C(=O)NCC(=O)O)CSCC(=O)N[C@@H](Cc2ccccc2)C(=O)N[C@@H](Cc2ccc(O)cc2)C(=O)N[C@@H](CC(=O)O)C1=O [Example 1052] ({CH2CO}-FYD[NHexGly]YKDRL[Ahp(2)]PVSCG-OH; thioether N-14)
8,20.7,CCCCCCN1CC(=O)N[C@@H](Cc2ccc(O)cc2)C(=O)N[C@@H](CCCCN)C(=O)NCC(=O)N[C@@H](CCCNC(=N)N)C(=O)N[C@@H](CC(C)C)C(=O)N[C@@H](CCCCC)C(=O)N2CCC[C@H]2C(=O)N[C@@H](C(C)C)C(=O)N[C@@H](CO)C(=O)N[C@H](C(=O)NCC(=O)O)CSCC(=O)N[C@@H](Cc2ccccc2)C(=O)N[C@@H](Cc2ccc(O)cc2)C(=O)N[C@@H](CC(=O)O)C1=O [Example 1053] ({CH2CO}-FYD[NHexGly]YKGRL[Ahp(2)]PVSCG-OH; thioether N-14)
9,29.7,CCCCCCN1CC(=O)N[C@@H](Cc2ccc(O)cc2)C(=O)N[C@@H](C(C)C)C(=O)NCC(=O)N[C@@H](CCCNC(=N)N)C(=O)N[C@@H](CC(C)C)C(=O)N[C@@H](CCCCC)C(=O)N2CCC[C@H]2C(=O)N[C@@H](C(C)C)C(=O)N[C@@H](CO)C(=O)N[C@H](C(=O)NCC(N)=O)CSCC(=O)N[C@@H](Cc2ccccc2)C(=O)N[C@@H](Cc2ccc(O)cc2)C(=O)N[C@@H](CC(=O)O)C1=O [Example 1054] ({CH2CO}-FYD[NHexGly]YVGRL[Ahp(2)]PVSCG-NH2; thioether N-14)
10,36.9,CCCCCCN1CC(=O)N[C@@H](Cc2ccc(O)cc2)C(=O)N[C@@H](C(C)CC)C(=O)NCC(=O)N[C@@H](CCCNC(=N)N)C(=O)N[C@@H](CC(C)C)C(=O)N[C@@H](CCCCC)C(=O)N2CCC[C@H]2C(=O)N[C@@H](C(C)C)C(=O)N[C@@H](CO)C(=O)N[C@H](C(=O)NCC(N)=O)CSCC(=O)N[C@@H](Cc2ccccc2)C(=O)N[C@@H](Cc2ccc(O)cc2)C(=O)N[C@@H](CC(=O)O)C1=O (stereo partly drawn) [Example 1055] ({CH2CO}-FYD[NHexGly]Y[Ile(3ξ)]GRL[Ahp(2)]PVSCG-NH2; thioether N-14)
11,17.1,CCCCCCN1CC(=O)N[C@@H](Cc2ccc(O)cc2)C(=O)N[C@@H](CCCCC)C(=O)N[C@@H](CCCCN)C(=O)N[C@@H](CCCNC(=N)N)C(=O)N[C@@H](CC(C)C)C(=O)N[C@@H](CCCCC)C(=O)N2CCC[C@H]2C(=O)N[C@@H](C(C)C)C(=O)N[C@@H](CO)C(=O)N[C@H](C(=O)NCC(N)=O)CSCC(=O)N[C@@H](Cc2ccccc2)C(=O)N[C@@H](Cc2ccc(O)cc2)C(=O)N[C@@H](CC(=O)O)C1=O [Example 1056] ({CH2CO}-FYD[NHexGly]Y[Ahp(2)]KRL[Ahp(2)]PVSCG-NH2; thioether N-14)
12,35.1,CCCCCCN1CC(=O)N[C@@H](Cc2ccc(O)cc2)C(=O)N[C@@H](CCCCC)C(=O)N[C@@H](CCC(=O)O)C(=O)N[C@@H](CCCNC(=N)N)C(=O)N[C@@H](CC(C)C)C(=O)N[C@@H](CCCCC)C(=O)N2CCC[C@H]2C(=O)N[C@@H](C(C)C)C(=O)N[C@@H](CO)C(=O)N[C@H](C(=O)NCC(N)=O)CSCC(=O)N[C@@H](Cc2ccccc2)C(=O)N[C@@H](Cc2ccc(O)cc2)C(=O)N[C@@H](CC(=O)O)C1=O [Example 1057] ({CH2CO}-FYD[NHexGly]Y[Ahp(2)]ERL[Ahp(2)]PVSCG-NH2; thioether N-14)
